This data set relates to CCRIS mutagenicity, Ames/micronucleus/aberration tests. Put plainly: CCRIS mutagenicity studies.
Setting [1] is: Test System: Ames Salmonella typhimurium, Strain/Indicator: TA98, Metabolic Activation: None, Method: Plate incorporation.
Setting [2] is: Test System: Ames Salmonella typhimurium, Strain/Indicator: TA100, Metabolic Activation: None, Method: Plate incorporation.
The mark [3] stands for this setting: Test System: Ames Salmonella typhimurium, Strain/Indicator: TA1535, Metabolic Activation: None, Method: Plate incorporation.
Where [4] appears, read: Test System: AMES SALMONELLA TYPHIMURIUM, Strain/Indicator: TA100, Metabolic Activation: NONE, Method: PREINCUBATION
The mark [5] stands for this setting: Test System: AMES SALMONELLA TYPHIMURIUM, Strain/Indicator: TA98, Metabolic Activation: NONE, Method: STANDARD PLATE.
[6] abbreviates: Test System: AMES SALMONELLA TYPHIMURIUM, Strain/Indicator: TA100, Metabolic Activation: NONE, Method: STANDARD PLATE.

Each structure is given as a SMILES string. Active and inactive are the calls of the source. The rule behind the calls is not given here.

`CC1(c2ccc(Oc3ccccc3)cc2)OC(=O)N(Nc2ccccc2)C1=O` (configuration not stated): the mutagenic call (End Point: In vitro chromosomal aberrations, Test System: Human (male and female) lymphocytes, Metabolic Activation: None) is “inactive; negative”; the mutagenic call (End Point: In vitro chromosomal aberrations, Test System: Human (male and female) lymphocytes, Metabolic Activation: S-9) was “inactive; negative”; the mutagenic call (End Point: In vivo micronucleus, Test System: Bone marrow polychromatic erythrocytes, Species: Mouse, Strain/Sex: Crl:CD-1(ICR)BR/Male and female) is “inactive; negative”; the mutagenic call (End Point: UDS, Species: Rat, Strain/Sex: Sprague-Dawley Crl:CD BR/Male, Route: Oral) was “inactive; negative”; the mutagenic call (Test System: Ames Salmonella typhimurium, Strain/Indicator: TA97, Metabolic Activation: None, Method: Plate incorporation) was “inactive; negative”; the mutagenic call (Test System: Ames Salmonella typhimurium, Strain/Indicator: TA97, Metabolic Activation: Rat, Liver, S-9, Method: Plate incorporation) is “inactive; negative”. The mutagenic call by setting is: under setting [1], “inactive; negative”; (Test System: Ames Salmonella typhimurium, Strain/Indicator: TA98, Metabolic Activation: Rat, Liver, S-9, Method: Plate incorporation) “inactive; negative”; under setting [2], “inactive; negative”; (Test System: Ames Salmonella typhimurium, Strain/Indicator: TA100, Metabolic Activation: Rat, Liver, S-9, Method: Plate incorporation) “inactive; negative”; under setting [3], “inactive; negative”; (Test System: Ames Salmonella typhimurium, Strain/Indicator: TA1535, Metabolic Activation: Rat, Liver, S-9, Method: Plate incorporation) “inactive; negative”. The mutagenic call by setting is: (Test System: Chinese hamster ovary cells, Strain/Indicator: CHO-K1-BH4 (HGPRT), Metabolic Activation: None, Method: Suspension/plate?) “inactive; negative”; (Test System: Chinese hamster ovary cells, Strain/Indicator: CHO-K1-BH4 (HGPRT), Metabolic Activation: Rat, Liver, S-9, Method: Suspension/plate?) “inactive; negative”; (Test System: E. coli, Strain/Indicator: WP2 uvrA (pKM101), Metabolic Activation: None, Method: Plate incorporation) “inactive; negative”; (Test System: E. coli, Strain/Indicator: WP2 uvrA (pKM101), Metabolic Activation: Rat, Liver, S-9, Method: Plate incorporation) “inactive; negative”.
On to `CC/C=C/C=C/C=C/C=C/C=C\OC[C@@H](O)CO`, for which the mutagenic call was “active; positive” under setting [4] and “active; positive” (Test System: AMES SALMONELLA TYPHIMURIUM, Strain/Indicator: TA100, Metabolic Activation: RAT, LIVER, S-9, AROCLOR 1254, Method: PREINCUBATION).
Take `C=C(C=O)CCCC`: the mutagenic call is “active; positive” under setting [4] and “active; positive” (Test System: AMES SALMONELLA TYPHIMURIUM, Strain/Indicator: TA100, Metabolic Activation: RAT LIVER S-9, AROCLOR 1254, Method: PREINCUBATION).
Take `Cc1cc(C)c2nc3c(ccc4ccccc43)c(C)c2c1`: the mutagenic call is, setting by setting: (Test System: AMES SALMONELLA TYPHIMURIUM, Strain/Indicator: TA97A, Metabolic Activation: NONE, Method: PREINCUBATION) “inactive; negative”; (Test System: AMES SALMONELLA TYPHIMURIUM, Strain/Indicator: TA98, Metabolic Activation: NONE, Method: PREINCUBATION) “active; positive”; under setting [4], “active; positive”; (Test System: AMES SALMONELLA TYPHIMURIUM, Strain/Indicator: TA102, Metabolic Activation: NONE, Method: PREINCUBATION) “inactive; negative”.
Regarding `CC(=O)Nc1ccc(N=Nc2ccc(N(C)C)cc2)cc1`, the mutagenic call by setting is: (Test System: AMES SALMONELLA TYPHIMURIUM, Strain/Indicator: TA98, Metabolic Activation: RAT, LIVER, S-9, POLYCHLORINATED BIPHENYLS, Method: PREINCUBATION) “active; positive”; (Test System: AMES SALMONELLA TYPHIMURIUM, Strain/Indicator: TA100, Metabolic Activation: RAT, LIVER, S-9, POLYCHLORINATED BIPHENYLS, Method: PREINCUBATION) “inactive; negative”.
In the case of `CC1(C)C(C=C(Cl)Cl)C1C(=O)OC(C#N)c1ccc(F)c(Oc2ccccc2)c1` (configuration not stated), the mutagenic call reads like this: (End Point: In vitro chromosomal aberrations, Test System: Human lymphocytes, Metabolic Activation: Male Sprague-Dawley rat, liver, S-9, Aroclor 1254) “inactive; negative”; (End Point: In vitro chromosomal aberrations, Test System: Human lymphocytes, Metabolic Activation: None) “inactive; negative”; (End Point: In vitro chromosomal aberrations, Test System: Human lymphocytes, Metabolic Activation: S-9 (No details given by DPR evaluator)) “inactive; negative”; (End Point: In vivo micronucleus, Test System: Bone marrow erythrocytes, Strain/Indicator: Bor:NMRI (SPF Han)/ Female, Species: Mouse, Route: Oral) “inactive; negative (no significant effect on frequency of micronucleated polychromatic ery”; (End Point: In vivo micronucleus, Test System: Bone marrow erythrocytes, Strain/Indicator: Bor:NMRI (SPF Han)/ Male, Species: Mouse, Route: Oral) “inactive; negative (no significant effect on frequency of micronucleated polychromatic ery”; under setting [1], “inactive; negative”. Further, the mutagenic call was “inactive; negative” (Test System: Ames Salmonella typhimurium, Strain/Indicator: TA98, Metabolic Activation: S-9 (Additional details not given by DPR evaluator), Method: Plate incorporation); “inactive; negative” under setting [2]; “inactive; negative” (Test System: Ames Salmonella typhimurium, Strain/Indicator: TA100, Metabolic Activation: S-9 (Additional details not given by DPR evaluator), Method: Plate incorporation); “inactive; negative” under setting [3]; “inactive; negative” (Test System: Ames Salmonella typhimurium, Strain/Indicator: TA1535, Metabolic Activation: S-9 (Additional details not given by DPR evaluator), Method: Plate incorporation); “inactive; negative” (Test System: Ames Salmonella typhimurium, Strain/Indicator: TA1537, Metabolic Activation: None, Method: Plate incorporation). Further, the mutagenic call (Test System: Ames Salmonella typhimurium, Strain/Indicator: TA1537, Metabolic Activation: S-9 (Additional details not given by DPR evaluator), Method: Plate incorporation) was “inactive; negative”; the mutagenic call (Test System: CHO-HGPRT, Strain/Indicator: CHO-Ki-BH4 cells, Metabolic Activation: None, Method: Forward mutation assay) is “inactive; negative”; the mutagenic call (Test System: CHO-HGPRT, Strain/Indicator: CHO-Ki-BH4 cells, Metabolic Activation: S-9 (No additional details presented by DPR evaluator), Method: Forward mutation assay) is “inactive; negative”; the mutagenic call (Test System: UDS Rat hepatocytes, Strain/Indicator: Thymidine incorporation, Metabolic Activation: None, Method: Autoradiography) was “inactive; negative”.
Take `O=[N+]([O-])c1c2c3c(ccc4cccc(c43)CC2)c2ccccc12`: the mutagenic call by setting is: under setting [5], “active; positive”; under setting [6], “inactive; negative”.
As to `[N-]=[N+]=NC[C@H]1O[C@H](O)[C@@H](O)[C@@H](O)[C@@H]1O`, the mutagenic call is, setting by setting: under setting [5], “inactive; negative”; under setting [6], “active; positive”.
For the compound `CCc1cc(O)cc2c3c([nH]c12)C(CC)(CC(=O)O)OCC3` (configuration not stated), the mutagenic call reads like this: under setting [5], “active; positive”; (Test System: AMES SALMONELLA TYPHIMURIUM, Strain/Indicator: TA98, Metabolic Activation: RAT, LIVER, S-9 (10 OR 50 µL/PLATE), Method: STANDARD PLATE) “inactive; negative”; under setting [6], “inactive; negative”; (Test System: AMES SALMONELLA TYPHIMURIUM, Strain/Indicator: TA100, Metabolic Activation: RAT, LIVER, S-9 (10 OR 50 µL/PLATE), Method: STANDARD PLATE) “inactive; negative”; (Test System: AMES SALMONELLA TYPHIMURIUM, Strain/Indicator: TA1535, Metabolic Activation: NONE, Method: STANDARD PLATE) “inactive; negative”; (Test System: AMES SALMONELLA TYPHIMURIUM, Strain/Indicator: TA1535, Metabolic Activation: RAT, LIVER, S-9 (10 OR 50 µL/PLATE), Method: STANDARD PLATE) “inactive; negative”. Besides, the mutagenic call reads like this: (Test System: AMES SALMONELLA TYPHIMURIUM, Strain/Indicator: TA1537, Metabolic Activation: NONE, Method: STANDARD PLATE) “inactive; negative”; (Test System: AMES SALMONELLA TYPHIMURIUM, Strain/Indicator: TA1537, Metabolic Activation: RAT, LIVER, S-9 (10 OR 50 µL/PLATE), Method: STANDARD PLATE) “inactive; negative”; (Test System: E. COLI, Strain/Indicator: WP2 UVRA, Metabolic Activation: NONE, Method: STANDARD PLATE) “inactive; negative”; (Test System: E. COLI, Strain/Indicator: WP2 UVRA, Metabolic Activation: RAT, LIVER, S-9 (10 OR 50 µL/PLATE), Method: STANDARD PLATE) “inactive; negative”.
For the compound `CCCOc1cc(N=Nc2ccccc2)ccc1N=Nc1c(S(=O)(=O)O)cc2ccc(N)cc2c1O`, the mutagenic call reads like this: under setting [5], “inactive; negative”; (Test System: AMES SALMONELLA TYPHIMURIUM, Strain/Indicator: TA98, Metabolic Activation: RAT, LIVER, S-9, AROCLOR 1254, Method: STANDARD PLATE) “active; positive”; under setting [6], “inactive; negative”; (Test System: AMES SALMONELLA TYPHIMURIUM, Strain/Indicator: TA100, Metabolic Activation: RAT, LIVER, S-9, AROCLOR 1254, Method: STANDARD PLATE) “inactive; negative”; (Test System: AMES SALMONELLA TYPHIMURIUM, Strain/Indicator: TA1538, Metabolic Activation: NONE, Method: STANDARD PLATE) “inactive; negative”; (Test System: AMES SALMONELLA TYPHIMURIUM, Strain/Indicator: TA1538, Metabolic Activation: RAT, LIVER, S-9, AROCLOR 1254, Method: STANDARD PLATE) “active; positive”.
